Results on seven compounds are retold here after US20240317780A1, “RADIOPHARMACEUTICAL SOMATOSTATIN RECEPTOR LIGANDS AND PRECURSORS THEREOF” (Technische Universität München, priority 2021, published 2024).

The nature of the data set: Octanol-water distribution coefficient (logD pH 7.4) of the labeled tracer. The format is physicochemical. Conditions: n-octanol/PBS pH 7.4, room temperature. The protocol:
Approximately 1 MBq of the labeled tracer was dissolved in 1 mL of a 1:1 mixture (by volumes) of phosphate buffered saline (PBS, pH 7.4) and n-octanol in an Eppendorf tube. After vigorous mixing of the suspension for 3 minutes at room temperature, the vial was centrifuged at 15000 g for 5 minutes (Biofuge 15, Heraus Sepatech, Osterode, Germany) and 100 μL aliquots of both layers were measured in a gamma counter. The experiment was repeated at least six times.
In the case of `C[C@@H](O)[C@H](NC(=O)C1CSSCC(NC(=O)C(Cc2ccccc2)NC(=O)COCCOCCNC(=O)C(CC(=O)O)NC(=O)[C@@H](CC(=O)O)NC(=O)C(CNC(=O)c2ccc([Si](F)(C(C)(C)C)C(C)(C)C)cc2)NC(=O)CCC(C(=O)O)N2CCN(CC(=O)O)CCN(CC(=O)O)CCN(CC(=O)O)CC2)C(=O)N[C@@H](Cc2ccc(O)cc2)C(=O)NC(Cc2c[nH]c3ccccc23)C(=O)N[C@@H](CCCCN)C(=O)N[C@@H]([C@@H](C)O)C(=O)N1)C(=O)O` (stereo partly shown) (natGa complex, metal not drawn) [[Ga]1], the “LogDpH=7.4” value is recorded as −2.02 ± 0.04.

Turning to `C[C@@H](O)[C@H](NC(=O)C1CSSCC(NC(=O)C(Cc2ccccc2)NC(=O)COCCOCCNC(=O)C(CC(=O)O)NC(=O)[C@@H](CC(=O)O)NC(=O)C(CNC(=O)CCC(C(=O)O)N2CCN(CC(=O)O)CCN(CC(=O)O)CCN(CC(=O)O)CC2)NC(=O)c2ccc([Si](F)(C(C)(C)C)C(C)(C)C)cc2)C(=O)N[C@@H](Cc2ccc(O)cc2)C(=O)NC(Cc2c[nH]c3ccccc23)C(=O)N[C@@H](CCCCN)C(=O)N[C@@H]([C@@H](C)O)C(=O)N1)C(=O)O` (stereo partly shown) (natGa complex, metal not drawn) [[Ga]2], the “LogDpH=7.4” value was −2.3 ± 0.09.

With `C[C@@H](O)[C@H](NC(=O)C1CSSCC(NC(=O)C(Cc2ccccc2)NC(=O)COCCOCCNC(=O)C(CC(=O)O)NC(=O)[C@@H](CC(=O)O)NC(=O)C(CNC(=O)c2ccc([Si](F)(C(C)(C)C)C(C)(C)C)cc2)NC(=O)CN2CCN(CC(=O)O)CCN(CC(=O)O)CCN(CC(=O)O)CC2)C(=O)N[C@@H](Cc2ccc(O)cc2)C(=O)NC(Cc2c[nH]c3ccccc23)C(=O)N[C@@H](CCCCN)C(=O)N[C@@H]([C@@H](C)O)C(=O)N1)C(=O)O` (stereo partly shown) (natGa complex, metal not drawn) [[Ga]3], the “LogDpH=7.4” value was −1.87 ± 0.07.

With `C[C@@H](O)[C@H](NC(=O)C1CSSCC(NC(=O)C(Cc2ccccc2)NC(=O)COCCOCCNC(=O)C(CC(=O)O)NC(=O)[C@@H](CC(=O)O)NC(=O)C(CNC(=O)CN2CCN(CC(=O)O)CCN(CC(=O)O)CCN(CC(=O)O)CC2)NC(=O)c2ccc([Si](F)(C(C)(C)C)C(C)(C)C)cc2)C(=O)N[C@@H](Cc2ccc(O)cc2)C(=O)NC(Cc2c[nH]c3ccccc23)C(=O)N[C@@H](CCCCN)C(=O)N[C@@H]([C@@H](C)O)C(=O)N1)C(=O)O` (stereo partly shown) (natGa complex, metal not drawn) [[Ga]4], the “LogDpH=7.4” value is −2.15 ± 0.11.

With `C[C@@H](O)[C@H](NC(=O)C1CSSCC(NC(=O)C(Cc2ccccc2)NC(=O)CNC(=O)CNC(=O)[C@@H](CC(=O)O)NC(=O)C(CC(=O)O)NC(=O)[C@@H](CNC(=O)CN2CCN(CC(=O)O)CCN(CC(=O)O)CCN(CC(=O)O)CC2)NC(=O)C(CN)NC(=O)c2ccc([Si](F)(C(C)(C)C)C(C)(C)C)cc2)C(=O)N[C@@H](Cc2ccc(O)cc2)C(=O)NC(Cc2c[nH]c3ccccc23)C(=O)N[C@@H](CCCCN)C(=O)N[C@@H]([C@@H](C)O)C(=O)N1)C(=O)O` (stereo partly shown) [[Lu]19], the “LogDpH=7.4” value is listed as −1.85 ± 0.02.

As to `C[C@@H](O)[C@H](NC(=O)C1CSSCC(NC(=O)C(Cc2ccccc2)NC(=O)CNC(=O)CNC(=O)[C@@H](CC(=O)O)NC(=O)C(CC(=O)O)NC(=O)[C@@H](CNC(=O)CN2CCN(CC(=O)O)CCN(CC(=O)O)CCN(CC(=O)O)CC2)NC(=O)C[N+](C)(C)Cc2ccc([Si](F)(C(C)(C)C)C(C)(C)C)cc2)C(=O)N[C@@H](Cc2ccc(O)cc2)C(=O)NC(Cc2c[nH]c3ccccc23)C(=O)N[C@@H](CCCCN)C(=O)N[C@@H]([C@@H](C)O)C(=O)N1)C(=O)O` (stereo partly shown) [[Lu]24], the “LogDpH=7.4” value is given as −1.90 ± 0.05.

Take `C[C@@H](O)[C@H](NC(=O)C1CSSCC(NC(=O)C(Cc2ccccc2)NC(=O)CNC(=O)CNC(=O)CNC(=O)C(CC(=O)O)NC(=O)[C@@H](CC(=O)O)NC(=O)C(CNC(=O)C[N+](C)(C)Cc2ccc([Si](F)(C(C)(C)C)C(C)(C)C)cc2)NC(=O)CN2CCN(CC(=O)O)CCN(CC(=O)O)CCN(CC(=O)O)CC2)C(=O)N[C@@H](Cc2ccc(O)cc2)C(=O)NC(Cc2c[nH]c3ccccc23)C(=O)N[C@@H](CCCCN)C(=O)N[C@@H]([C@@H](C)O)C(=O)N1)C(=O)O` (stereo partly shown) [[Lu]44]: the “LogDpH=7.4” value was −1.98 ± 0.05.
